Assays:
[1] = human absorption data, from Ertl et al., J. Med. Chem, 2000; cited from earlier work
NHE3 = target: T1, NHE3 (Homo sapiens, UniProt P48764); assay: persistent inhibition of NHE3 in the cell-based assay of example 181 (4-chloro vs 4-cyano pairs); conditions: for IC50: read-out: pIC50 (persistent) (converted); for Percent Inhibition: cell-based assay of example 181, persistent
T1 construct: expressed in transfected cells
T1 sequence (P48764 26-834): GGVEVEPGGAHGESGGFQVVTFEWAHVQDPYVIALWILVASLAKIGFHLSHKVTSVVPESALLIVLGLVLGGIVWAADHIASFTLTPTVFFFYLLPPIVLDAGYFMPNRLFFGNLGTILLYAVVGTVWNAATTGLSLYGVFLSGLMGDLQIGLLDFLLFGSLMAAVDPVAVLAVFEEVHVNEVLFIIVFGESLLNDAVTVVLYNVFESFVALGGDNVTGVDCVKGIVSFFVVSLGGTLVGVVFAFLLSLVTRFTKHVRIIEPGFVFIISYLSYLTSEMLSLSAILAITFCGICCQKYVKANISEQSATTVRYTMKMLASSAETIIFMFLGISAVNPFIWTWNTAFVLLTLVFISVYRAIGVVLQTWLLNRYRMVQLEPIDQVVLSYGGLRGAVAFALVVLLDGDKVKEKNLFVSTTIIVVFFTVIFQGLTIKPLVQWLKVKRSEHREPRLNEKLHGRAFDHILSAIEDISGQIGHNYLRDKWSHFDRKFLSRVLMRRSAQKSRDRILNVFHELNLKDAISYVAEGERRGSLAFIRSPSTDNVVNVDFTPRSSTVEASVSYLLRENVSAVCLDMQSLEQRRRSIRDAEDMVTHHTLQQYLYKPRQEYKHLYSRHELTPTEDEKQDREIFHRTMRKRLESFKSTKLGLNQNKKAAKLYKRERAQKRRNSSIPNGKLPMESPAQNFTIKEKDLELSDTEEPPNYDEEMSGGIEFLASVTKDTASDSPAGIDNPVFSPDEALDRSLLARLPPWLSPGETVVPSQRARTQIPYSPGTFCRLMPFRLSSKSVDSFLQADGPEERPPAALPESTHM
T1 sequence (Q99653 2-195 partner limits assumed): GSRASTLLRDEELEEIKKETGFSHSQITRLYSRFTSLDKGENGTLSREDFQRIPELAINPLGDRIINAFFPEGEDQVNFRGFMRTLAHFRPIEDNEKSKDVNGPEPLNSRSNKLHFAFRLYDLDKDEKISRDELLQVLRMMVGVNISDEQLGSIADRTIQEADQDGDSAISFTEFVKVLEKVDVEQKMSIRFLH
Description: The following pairs of compounds differ only in the 4-position substituent (either chloro (X—Cl) or cyano (X—CN)):
The ability of compounds to inhibit human and rat NHE-3-mediated Na^+ dependent H^+ antiport after application and washout was measured using a modification of the pH sensitive dye method described above. PS120 fibroblasts stably expressing human NHE3 and NHERF2 were obtained from Mark Donowitz (Baltimore, Md.). Opossum kidney (OK) cells were obtained from the ATCC and propagated per their instructions. The rat NHE-3 gene was introduced into OK cells via electroporation, and cells were seeded into 96 well plates and grown overnight. Medium was aspirated from the wells, cells were washed once with NaCl-HEPES buffer (100 mM NaCl, 50 mM HEPES, 10 mM glucose, 5 mM KCl, 2 mM CaCl2, 1 mM MgCl2, pH 7.4), then overlayed with NaCl-HEPES buffer containing 0-30 μM test compound. After a 60 min incubation at room temperature, the test drug containing buffer was aspirated from the cells. Following aspiration, cells were washed once with NaCl-HEPES buffer without drug, then incubated for 30 min at 37° C. with NH4Cl-HEPES buffer (20 mM NH4Cl, 80 mM NaCl, 50 mM HEPES, 5 mM KCl, 2 mM CaCl2, 1 mM MgCl2, pH 7.4) containing 5 μM BCECF-AM. Cells were washed once with Ammonium free, Na^+-free HEPES (100 mM choline, 50 mM HEPES, 10 mM glucose, 5 mM KCl, 2 mM CaCl2, 1 mM MgCl2, pH 7.4) and incubated in the same buffer for 10 minutes at room temperature to lower intracellular pH. NHE-3-mediated recovery of neutral intracellular pH was initiated (10 min after compound washout) by addition of Na-HEPES buffer. […] Changes in intracellular pH were monitored using a FLIPR Tetra® (Molecular Devices, Sunnyvale, Calif.) by excitation at λex 439 to 505 nm, and measuring BCECF fluorescence at λem 538 nm. The initial rate of the fluorescence ratio change was used as a measure of NHE-mediated Na^+/H^+ activity, and reported as the change in fluorescence ratio per minute.

[2] = cell-based assay of example 181, after washout

| Structure (SMILES) | % FA [1] | IC50 (NHE3; [2]) | also measured |
| --- | --- | --- | --- |
| OC[C@H]1O[C@@H](O[C@@H]2[C@@H](CO)OC(O)(CO)[C@H]2O)[C@H](O)[C@@H](O)[C@H]1O (mixture of isomers) [lactulose, reference compound] | 0.6% |  |  |
| O=C(NCCCCNC(=O)NCCOCCOCCNS(=O)(=O)c1ccc(O[C@H]2c3cc(Cl)cc(Cl)c3C[C@@H]2N2CCNCC2)c(F)c1)NCCOCCOCCNS(=O)(=O)c1ccc(O[C@H]2c3cc(Cl)cc(Cl)c3C[C@@H]2N2CCNCC2)c(F)c1 [D-Cl, 3-(2-{2-[2-(4-{[(1S,2S)-4,6-dichloro-2-(piperazin-1-yl)-2,3-dihydro-1H-inden-1-yl]oxy}-3-fluorobenzenesulfonamido)ethoxy]ethoxy}ethyl)-1-(4-{[(2-{2-[2-(4-{[(1S,2S)-4,6-dichloro-2-(piperazin-1-yl)-2,3-dihydro-1H-1-inden-1-yl]oxy}-3-fluorobenzenesulfonamido)ethoxy]ethoxy}ethyl)carbamoyl]amino}butyl)urea] |  | 3.98 nM |  |
| CN(C)[C@@H]1CCCN([C@H]2Cc3c(C#N)cc(Cl)cc3[C@@H]2Oc2ccc(S(=O)(=O)NCCOCCOCCNC(=O)NCCCCNC(=O)NCCOCCOCCNS(=O)(=O)c3ccc(O[C@H]4c5cc(Cl)cc(C#N)c5C[C@@H]4N4CCC[C@@H](N(C)C)C4)cc3)cc2)C1 [E-CN, 3-(2-{2-[2-(4-{[(1S,2S)-6-chloro-4-cyano-2-[(3R)-3-(dimethylamino)piperidin-1-yl]-2,3-dihydro-1H-inden-1-yl]oxy}benzenesulfonamido)ethoxy]ethoxy}ethyl)-1-(4-{[(2-{2-[2-(4-{[(1S,2S)-6-chloro-4-cyano-2-[(3R)-3-(dimethylamino)piperidin-1-yl]-2,3-dihydro-1H-inden-1-yl]oxy}benzenesulfonamido)ethoxy]ethoxy}ethyl)carbamoyl]amino}butyl)urea] |  | 1.26 nM | Percent Inhibition (NHE3): 36% |
| CN(C)[C@@H]1CCCN([C@H]2Cc3c(Cl)cc(Cl)cc3[C@@H]2Oc2ccc(S(=O)(=O)NCCOCCOCCNC(=O)NCCCCNC(=O)NCCOCCOCCNS(=O)(=O)c3ccc(O[C@H]4c5cc(Cl)cc(Cl)c5C[C@@H]4N4CCC[C@@H](N(C)C)C4)cc3)cc2)C1 [E-Cl, 3-(2-{2-[2-(4-{[(1S,2S)-4,6-dichloro-2-[(3R)-3-(dimethylamino)piperidin-1-yl]-2,3-dihydro-1H-inden-1-yl]oxy}benzenesulfonamido)ethoxy]ethoxy}ethyl)-1-(4-{[(2-{2-[2-(4-{[(1S,2S)-4,6-dichloro-2-[(3R)-3-(dimethylamino)piperidin-1-yl]-2,3-dihydro-1H-inden-1-yl]oxy}benzenesulfonamido)ethoxy]ethoxy}ethyl)carbamoyl]amino}butyl)urea] |  | 5.01 nM | Percent Inhibition (NHE3): 99% |
| Cc1cc(S(=O)(=O)NCCOCCOCCNC(=O)NCCCCNC(=O)NCCOCCOCCNS(=O)(=O)c2ccc(O[C@H]3c4cc(Cl)cc(C#N)c4C[C@@H]3N3CCNCC3)c(C)c2)ccc1O[C@H]1c2cc(Cl)cc(C#N)c2C[C@@H]1N1CCNCC1 [F-CN, 3-(2-{2-[2-(4-{[(1S,2S)-6-chloro-4-cyano-2-(piperazin-1-yl)-2,3-dihydro-1H-inden-1-yl]oxy}-3-methylbenzenesulfonamido)ethoxy]ethoxy}ethyl)-1-(4-{[(2-{2-[2-(4-{[(1S,2S)-6-chloro-4-cyano-2-(piperazin-1-yl)-2,3-dihydro-1H-inden-1-yl]oxy}-3-methylbenzenesulfonamido)ethoxy]ethoxy}ethyl)carbamoyl]amino}butyl)urea] |  | 2.51 nM | Percent Inhibition (NHE3): 88% |
| Cc1cc(S(=O)(=O)NCCOCCOCCNC(=O)NCCCCNC(=O)NCCOCCOCCNS(=O)(=O)c2ccc(O[C@H]3c4cc(Cl)cc(Cl)c4C[C@@H]3N3CCNCC3)c(C)c2)ccc1O[C@H]1c2cc(Cl)cc(Cl)c2C[C@@H]1N1CCNCC1 [F-Cl, 3-(2-{2-[2-(4-{[(1S,2S)-4,6-dichloro-2-(piperazin-1-yl)-2,3-dihydro-1H-inden-1-yl]oxy}-3-methylbenzenesulfonamido)ethoxy]ethoxy}ethyl)-1-(4-{[(2-{2-[2-(4-{[(1S,2S)-4,6-dichloro-2-(piperazin-1-yl)-2,3-dihydro-1H-inden-1-yl]oxy}-3-methylbenzenesulfonamido)ethoxy]ethoxy}ethyl)carbamoyl]amino}butyl)urea] |  | 20 nM | Percent Inhibition (NHE3): 104% |
| N#Cc1cc(Cl)cc2c1C[C@H](N1CCNCC1)[C@H]2Oc1ccc(S(=O)(=O)NCCOCCOCCNC(=O)NCCCCNC(=O)NCCOCCOCCNS(=O)(=O)c2ccc(O[C@H]3c4cc(Cl)cc(C#N)c4C[C@@H]3N3CCNCC3)cc2)cc1 [G-CN, 3-(2-{2-[2-(4-{[(1S,2S)-6-chloro-4-cyano-2-(piperazin-1-yl)-2,3-dihydro-1H-inden-1-yl]oxy}benzenesulfonamido)ethoxy]ethoxy}ethyl)-1-(4-{[(2-{2-[2-(4-{[(1S,2S)-6-chloro-4-cyano-2-(piperazin-1-yl)-2,3-dihydro-1-yl]oxy}benzenesulfonamido)ethoxy]ethoxy}ethyl)carbamoyl]amino}butyl)urea] |  |  | pIC50 (persistent) (NHE3; [2]): 9.0 |
| O=C(NCCCCNC(=O)NCCOCCOCCNS(=O)(=O)c1ccc(O[C@H]2c3cc(Cl)cc(Cl)c3C[C@@H]2N2CCNCC2)cc1)NCCOCCOCCNS(=O)(=O)c1ccc(O[C@H]2c3cc(Cl)cc(Cl)c3C[C@@H]2N2CCNCC2)cc1 [G-Cl, 3-(2-{2-[2-(4-{[(1S,2S)-4,6-dichloro-2-(piperazin-1-yl)-2,3-dihydro-1H-inden-1-yl]oxy}benzenesulfonamido)ethoxy]ethoxy}ethyl)-1-(4-{[(2-{2-[2-(4-{[(1S,2S)-4,6-dichloro-2-(piperazin-1-yl)-2,3-dihydro-1H-inden-1-yl]oxy}benzenesulfonamido)ethoxy]ethoxy}ethyl)carbamoyl]amino}butyl)urea] |  | 6.31 nM | Percent Inhibition (NHE3): 82% |
| C=CCc1ccccc1OCC(O)CNC(C)C (centres unmarked) [alprenolol] | 96% |  |  |
| O=C(O)P(=O)(O)O [foscarnet] | 17% |  |  |
| OC[C@@H](O)[C@@H](O)[C@H](O)[C@H](O)CO [mannitol, reference compound] | 26% |  |  |
| Cc1ccccc1N1C(=O)c2cc(S(N)(=O)=O)c(Cl)cc2NC1C (centres unmarked) [metolazone, Metolazone, reference compound] | 64% |  |  |
| O=C(O)c1cc(/N=N/c2ccc(O)c(C(=O)O)c2)ccc1O [olsalazine] | 2.3% |  |  |
| C=CCOc1ccccc1OCC(O)CNC(C)C (centres unmarked) [ozprenolol] | 97% |  |  |
| Cc1cc(=O)n(-c2ccccc2)n1C [phenazone] | 97% |  |  |
| CC(C)NCC(O)COc1cccc2[nH]ccc12 (centres unmarked) [pindolol] | 92% |  |  |
| CC(=O)Nc1ccc(OCC(O)CNC(C)C)cc1 (centres unmarked) [practolol] | 95% |  |  |
| OC[C@H]1O[C@H](OC[C@H]2O[C@H](O[C@]3(CO)O[C@H](CO)[C@@H](O)[C@@H]3O)[C@H](O)[C@@H](O)[C@@H]2O)[C@H](O)[C@@H](O)[C@H]1O [raffinose] | 0.3% |  |  |
